Measured values taken from US9201173B2, “Polarizer protective film, polarizer, and liquid crystal display device” (FUJIFILM CORPORATION, priority 2010, dated 2015).

Test: Acid dissociation constant by alkali titration
Format: physicochemical
Details: mixed solvent of tetrahydrofuran/water=6/4 by volume at 25° C.
Experimental: For measurement of the acid dissociation constant in the invention, employed is the alkali titration method described in Experimental Chemistry Course, 2nd Ed., pp. 215-217 (published by Maruzen).
The organic acid A is Tokyo Chemical's 1-benzyl-5-phenylbarbituric acid, and its acid dissociation constant in a mixed solvent of tetrahydrofuran/water=6/4 by volume at 25° C. is 4.0.

With O=C1NC(=O)N(Cc2ccccc2)C(=O)C1c1ccccc1 (stereo not shown) [organic acid A, 1-benzyl-5-phenylbarbituric acid] the acid dissociation constant was 4.0.
